According to patent US20240343704A1, “HALO-SUBSTITUTED AMINO PYRIDINE COMPOUNDS AS INHIBITORS OF THE HAEMATOPOIETIC PROGENITOR KINASE 1 (HPK1)” (priority 2021, published 2024):

Key:
[1] = target: T1, Recombinant (1-346) HPK1 (h) (Homo sapiens, UniProt Q92918); test: HPK1 Human STE Kinase Enzymatic Radiometric Assay; assay type: biochemical; settings: read-out: HPK1 IC50 nM Range*
T1 construct: Recombinant (1-346) HPK1 (h) is incubated with 8 mM MOPS pH 7.0
T1 sequence (Q92918 1-346): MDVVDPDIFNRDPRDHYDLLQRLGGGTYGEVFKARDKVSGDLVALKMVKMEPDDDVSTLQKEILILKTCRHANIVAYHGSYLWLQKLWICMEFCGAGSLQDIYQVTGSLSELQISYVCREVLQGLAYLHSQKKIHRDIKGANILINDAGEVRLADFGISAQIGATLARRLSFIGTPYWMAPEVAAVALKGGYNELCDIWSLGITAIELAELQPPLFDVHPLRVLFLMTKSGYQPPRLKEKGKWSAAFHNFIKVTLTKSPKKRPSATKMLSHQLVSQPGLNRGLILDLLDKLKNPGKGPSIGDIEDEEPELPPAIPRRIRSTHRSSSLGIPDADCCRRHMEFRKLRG
Protocol: A stock solution of 10 mM of test compound is prepared in DMSO. The compound plate was prepared by 3-fold and 9-point serial dilutions. […] The reaction is initiated by The addition of the Mg/ATP mix. After incubation for 40 minutes at RT, the reaction is stopped by the addition of phosphoric acid to a concentration of 0.5%.

Lck (h) = Lck (h) (Homo sapiens, UniProt P06239); test: Lck Human  Kinase Enzymatic Radiometric Assay; assay type: biochemical; settings: read-out: Lck IC50 nM Range*
Chain of Lck (h) (P06239 whole entry): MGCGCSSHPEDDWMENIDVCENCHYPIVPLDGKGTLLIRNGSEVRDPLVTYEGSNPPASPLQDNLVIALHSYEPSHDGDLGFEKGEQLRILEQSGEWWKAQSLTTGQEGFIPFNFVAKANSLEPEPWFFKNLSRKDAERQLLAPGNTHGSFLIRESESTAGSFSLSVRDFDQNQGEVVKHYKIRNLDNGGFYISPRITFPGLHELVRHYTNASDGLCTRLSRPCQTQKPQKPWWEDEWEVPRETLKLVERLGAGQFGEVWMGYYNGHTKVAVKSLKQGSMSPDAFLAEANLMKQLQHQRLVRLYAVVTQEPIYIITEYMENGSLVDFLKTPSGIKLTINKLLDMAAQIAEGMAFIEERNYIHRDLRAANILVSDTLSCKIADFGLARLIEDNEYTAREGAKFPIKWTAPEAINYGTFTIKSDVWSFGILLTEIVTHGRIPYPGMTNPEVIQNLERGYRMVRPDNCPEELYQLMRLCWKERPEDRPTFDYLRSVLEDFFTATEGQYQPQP
Method in brief: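 Substrate 33P-incorporation measured by scintillation counting after spotting on P30 filtermat and phosphoric acid washes. Human Lck reacted 40 min at RT in 50 mM Tris pH 7.5 with 10 mM MgAcetate, [gamma-33P]-ATP, 250 uM Cdc2 peptide, 0.1 mM EGTA and 0.1 mM Na3VO4.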

`CC(C)N1C[C@H]2C[C@@]2(c2ccc(-c3cc(-c4ccc5c(c4)CCNC5=O)c(N)nc3F)cc2)C1` [I-110, 6-(2-amino-6-fluoro-5-(4-((1R,5S)-3-isopropyl-3-azabicyclo[3.1.0]hexan-1-yl)phenyl)pyridin-3-yl)-3,4-dihydroisoquinolin-1(2H)-one] gave an IC50 [1] of 0.1 to 10 nM and an IC50 (Lck (h)) of over 1000 nM.
`CC(C)N1C[C@@H]2C[C@]2(c2ccc(-c3cc(-c4ccc5c(c4)CCNC5=O)c(N)nc3F)cc2)C1` [I-111, 6-(2-amino-6-fluoro-5-(4-((1S,5R)-3-isopropyl-3-azabicyclo[3.1.0]hexan-1-yl)phenyl)pyridin-3-yl)-3,4-dihydroisoquinolin-1(2H)-one 2,2,2-trifluoroacetate] showed an IC50 [1] of 0.1 to 10 nM and an IC50 (Lck (h)) of over 1000 nM.
In the case of `Nc1nc(F)c(-c2ccc(N3CC[C@@H](F)C3)cc2)cc1-c1ccc2c(c1)CCNC2=O` [I-112, (R)-6-(2-amino-6-fluoro-5-(4-(3-fluoropyrrolidin-1-yl)phenyl)pyridin-3-yl)-3,4-dihydroisoquinolin-1(2H)-one], the IC50 [1] is reported as 11 to 100 nM and the IC50 (Lck (h)) is reported as over 1000 nM.
In the case of `Nc1nc(F)c(-c2ccc(N3CC[C@H](F)C3)cc2)cc1-c1ccc2c(c1)CCNC2=O` [I-113, (S)-6-(2-amino-6-fluoro-5-(4-(3-fluoropyrrolidin-1-yl)phenyl)pyridin-3-yl)-3,4-dihydroisoquinolin-1(2H)-one], the IC50 [1] is reported as 11 to 100 nM and the IC50 (Lck (h)) is reported as over 1000 nM.
`CO[C@@H]1CCN(c2ccc(-c3cc(-c4ccc5c(c4)CCNC5=O)c(N)nc3F)cc2)C1` [I-114, (R)-6-(2-amino-6-fluoro-5-(4-(3-methoxypyrrolidin-1-yl)phenyl)pyridin-3-yl)-3,4-dihydroisoquinolin-1(2H)-one] gave an IC50 [1] of 11 to 100 nM and an IC50 (Lck (h)) of over 1000 nM.
`CO[C@H]1CCN(c2ccc(-c3cc(-c4ccc5c(c4)CCNC5=O)c(N)nc3F)cc2)C1` [I-115, (S)-6-(2-amino-6-fluoro-5-(4-(3-methoxypyrrolidin-1-yl)phenyl)pyridin-3-yl)-3,4-dihydroisoquinolin-1(2H)-one] was tested, and the IC50 [1] was 0.1 to 10 nM and the IC50 (Lck (h)) was over 1000 nM.
`CS(=O)(=O)[C@@H]1CCN(c2ccc(-c3cc(-c4ccc5c(c4)CCNC5=O)c(N)nc3F)cc2)C1` [I-116, (R)-6-(2-amino-6-fluoro-5-(4-(3-(methylsulfonyl)pyrrolidin-1-yl)phenyl)pyridin-3-yl)-3,4-dihydroisoquinolin-1(2H)-one] gave an IC50 [1] of 0.1 to 10 nM and an IC50 (Lck (h)) of over 1000 nM.
`CS(=O)(=O)[C@H]1CCN(c2ccc(-c3cc(-c4ccc5c(c4)CCNC5=O)c(N)nc3F)cc2)C1` [I-117, (S)-6-(2-amino-6-fluoro-5-(4-(3-(methylsulfonyl)pyrrolidin-1-yl)phenyl)pyridin-3-yl)-3,4-dihydroisoquinolin-1(2H)-one] showed an IC50 [1] of 0.1 to 10 nM and an IC50 (Lck (h)) of over 1000 nM.
`CN1C=NN(c2ccc(-c3cc(-c4ccc5c(c4)CCNC5=O)c(N)nc3F)cc2)CC1` [I-118, 6-(2-amino-6-fluoro-5-(4-(4-methyl-5,6-dihydro-1,2,4-triazin-1(4H)-yl)phenyl)pyridin-3-yl)-3,4-dihydroisoquinolin-1(2H)-one] was tested, and the IC50 [1] was 0.1 to 10 nM and the IC50 (Lck (h)) was over 1000 nM.
`Nc1nc(F)c(-c2ccc(C3CCN(CCO)CC3)cc2)cc1-c1ccc2c(c1)CCNC2=O` [I-119, 6-(2-amino-6-fluoro-5-(4-(1-(2-hydroxyethyl)piperidin-4-yl)phenyl)pyridin-3-yl)-3,4-dihydroisoquinolin-1(2H)-one] gave an IC50 [1] of 0.1 to 10 nM and an IC50 (Lck (h)) of over 1000 nM.
Compound `CCN1CC=C(c2ccc(-c3cc(-c4ccc5c(c4)CCNC5=O)c(N)nc3F)cc2)C1` [I-120, 6-(2-amino-5-(4-(1-ethyl-2,5-dihydro-1H-pyrrol-3-yl)phenyl)-6-fluoropyridin-3-yl)-3,4-dihydroisoquinolin-1(2H)-one] has an IC50 [1] of 0.1 to 10 nM and an IC50 (Lck (h)) of over 1000 nM.
With `CC(C)N1CC=C(c2ccc(-c3cc(-c4ccc5c(c4)CCNC5=O)c(N)nc3F)cc2)C1` [I-121, 6-(2-amino-6-fluoro-5-(4-(1-isopropyl-2,5-dihydro-1H-pyrrol-3-yl)phenyl)pyridin-3-yl)-3,4-dihydroisoquinolin-1(2H)-one] the IC50 [1] was 0.1 to 10 nM and the IC50 (Lck (h)) was over 1000 nM.
Compound `COCCN1CCCC(c2ccc(-c3cc(-c4ccc5c(c4)CCNC5=O)c(N)nc3F)cc2)C1` (centres unmarked) [I-122, 6-(2-amino-6-fluoro-5-(4-(1-(2-methoxyethyl)piperidin-3-yl)phenyl)pyridin-3-yl)-3,4-dihydroisoquinolin-1(2H)-one] has an IC50 [1] of 0.1 to 10 nM and an IC50 (Lck (h)) of over 1000 nM.
In the case of `Nc1nc(F)c(-c2ccc(C3=CCN(CCO)C3)cc2)cc1-c1ccc2c(c1)CCNC2=O` [I-123, 6-(2-amino-6-fluoro-5-(4-(1-(2-hydroxyethyl)-2,5-dihydro-1H-pyrrol-3-yl)phenyl)pyridin-3-yl)-3,4-dihydroisoquinolin-1(2H)-one], the IC50 [1] is reported as 0.1 to 10 nM and the IC50 (Lck (h)) is reported as over 1000 nM.
`COCCN1CC=C(c2ccc(-c3cc(-c4ccc5c(c4)CCNC5=O)c(N)nc3F)cc2)C1` [I-124, 6-(2-amino-6-fluoro-5-(4-(1-(2-methoxyethyl)-2,5-dihydro-1H-pyrrol-3-yl)phenyl)pyridin-3-yl)-3,4-dihydroisoquinolin-1(2H)-one] showed an IC50 [1] of 0.1 to 10 nM and an IC50 (Lck (h)) of over 1000 nM.
`CC(C)(O)CN1C[C@H]2C[C@@]2(c2ccc(-c3cc(-c4ccc5c(c4)CCNC5=O)c(N)nc3F)cc2)C1` [I-125, 6-(2-amino-6-fluoro-5-(4-((1R,5S)-3-(2-hydroxy-2-methylpropyl)-3-azabicyclo[3.1.0]hexan-1-yl)phenyl)pyridin-3-yl)-3,4-dihydroisoquinolin-1(2H)-one] gave an IC50 [1] of 0.1 to 10 nM and an IC50 (Lck (h)) of over 1000 nM.
In the case of `CC(C)(O)CN1C[C@@H]2C[C@]2(c2ccc(-c3cc(-c4ccc5c(c4)CCNC5=O)c(N)nc3F)cc2)C1` [I-126, 6-(2-amino-6-fluoro-5-(4-((1S,5R)-3-(2-hydroxy-2-methylpropyl)-3-azabicyclo[3.1.0]hexan-1-yl)phenyl)pyridin-3-yl)-3,4-dihydroisoquinolin-1(2H)-one], the IC50 [1] is reported as 0.1 to 10 nM and the IC50 (Lck (h)) is reported as over 1000 nM.
With `Nc1nc(F)c(-c2ccc(C3=CCN(CC(F)F)C3)cc2)cc1-c1ccc2c(c1)CCNC2=O` [I-127, 6-(2-amino-5-(4-(1-(2,2-difluoroethyl)-2,5-dihydro-1H-pyrrol-3-yl)phenyl)-6-fluoropyridin-3-yl)-3,4-dihydroisoquinolin-1(2H)-one] the IC50 [1] was 0.1 to 10 nM and the IC50 (Lck (h)) was over 1000 nM.
`Nc1nc(F)c(-c2ccc(S(=O)(=O)C3CCNCC3)cc2)cc1-c1ccc2c(c1)CCNC2=O` [I-128, 6-(2-amino-6-fluoro-5-(4-(piperidin-4-ylsulfonyl)phenyl)pyridin-3-yl)-3,4-dihydroisoquinolin-1(2H)-one] gave an IC50 [1] of 11 to 100 nM and an IC50 (Lck (h)) of over 1000 nM.
Compound `CN1CCC(n2cc(-c3cc(-c4cc5c(cc4F)C(=O)NCC5)c(N)nc3F)cn2)CC1` [I-129, 6-(2-amino-6-fluoro-5-(1-(1-methylpiperidin-4-yl)-1H-pyrazol-4-yl)pyridin-3-yl)-7-fluoro-3,4-dihydroisoquinolin-1(2H)-one] has an IC50 [1] of 0.1 to 10 nM and an IC50 (Lck (h)) of 101 to 1000 nM.
`CC(C)[C@H]1CN(c2ccc(-c3cc(-c4ccc5c(c4)CCNC5=O)c(N)nc3F)cc2C(F)(F)F)CCO1` [I-130, (S)-6-(2-amino-6-fluoro-5-(4-(2-isopropylmorpholino)-3-(trifluoromethyl)phenyl)pyridin-3-yl)-3,4-dihydroisoquinolin-1(2H)-one] was tested, and the IC50 [1] was 11 to 100 nM and the IC50 (Lck (h)) was over 1000 nM.
`CCN1CCOCC1c1ccc(-c2cc(-c3ccc4c(c3)CCNC4=O)c(N)nc2F)cc1` (centres unmarked) [I-131, 6-(2-amino-5-(4-(4-ethylmorpholin-3-yl)phenyl)-6-fluoropyridin-3-yl)-3,4-dihydroisoquinolin-1(2H)-one] gave an IC50 [1] of 0.1 to 10 nM and an IC50 (Lck (h)) of over 1000 nM.
